Laboratory results as given in patent US7507753B2, “Biaryl compound and use thereof” (Takeda Chemical Industries Ltd., priority 2001, dated 2009).
Structures can show the parent of a compound that is named as a salt.

Molecular target: T1, Human MC4R (Homo sapiens, UniProt P32245)
T1 construct: expressed in transfected cells; plasmid pMC4R in vector pMSR alpha neo
Experiment: [125I]-[Nle4,D-Phe7]-α-MSH binding inhibition in CHO/MC4R cells
Conditions: test compound 10 μM, 100 pM [125I]-[Nle4,D-Phe7]-α-MSH, room temperature, 60 minutes
Protocol: (1) Cloning of Human MC4R
Cloning of MC4R gene was conducted from human brain cDNA by PCR method. Using 0.5 ng of brain cDNA (Clontech, Quick-lone cDNA) as a genetic template, primer sets prepared by referring to MC4R gene base sequence described in Birkenbach M. et al. (J. Virol, 67(4),2209-2220(1993)), i.e., primer-1: 5′-[…]-3′ [Sequence No.:1] and primer-2: 5′-[…]-3′ [Sequence No.:2] were added in amounts of 50 pmol, respectively, and, the PCR reaction was carried out using TaKaRa LA Taq(Takara Shuzo)in Gene Amp PCR System 9600 (Applied Biosystems)(Reaction conditions: 35 cycles of 95° C. for 1 minute, 62° C. for 1 minute, and 72° C. for 3 minutes).
(2) Preparation of Expression Plasmid for Human MC4R
After the PCR fragments obtained above were digested by restriction enzymes Eco RI (Takara Shuzo) and Sal I (Takara Shuzo), DNA fragments were collected by agarose gel electrophoresis. The DNA fragments and an expression plasmid for animal cells pMSR a neo (Japanese Unexamined Patent Application Publication No. 2000-281685, WO 00/44756), which was previously digested by Eco RI and Sal I, were mixed and ligated using a DNA Ligation Kit Ver. 2 (Takara Shuzo). Transformation of E. coli JM109 competent cells gave plasmid pMC4R.
(3) Introduction of the Expression Plasmid for Human MC4R into CHO-K1 Cells and Expression thereof
CHO-KI cells grown in 150 cm^2 of a cell culture flask (Corning Costar) using Ham F12 medium (GIBCO BRL) containing 10% fetal bovine serum (GIBCO BRL) were collected by using 0.5 g/L trypsin-0.2 g/L EDTA (GIBCO BRL). The cells were washed with PBS (GIBCO BRL), centrifuged (1000 rpm, 5 minutes), and were suspended in PBS. Then, the DNA was introduced into the cells using Gene Pulser (BioRad) according to the following conditions. Namely, 1×10^7 cells and 15 μg of human MC4R expression plasmid pMC4R were placed in a 0.4-cm gap cuvette, and the mixture was electropolated under 0.25 kV of electric voltage, and 960 μF of capacitance. Cells were then transferred to Ham F12 medium containing 10% fetal bovine serum. After incubation for 24 hours, cells were collected, centrifuged, and suspended in Ham F12 medium containing 10% fetal bovine serum and Geneticin (GIBCO BRL) at a concentration of 500 μg/ml. Cells were diluted to a concentration of 10^4 cells/ml, and inoculated in 96-well plate (Corning Costar) to obtain Geneticin-resistant strains.
The Geneticin-resistant strains were grown in 96-well plates (OPAQUE PLATE 3917, Costar), and MC4R-expressing cells were selected from the resistant strains. Namely, in an assay buffer (20 mM HEPES (Dojindo Laboratories, Inc.), 0.5% BSA, 0.05% NaN3) containing 200 pM [^125I]-[Nle4,D-Phe7]-α-Melanocyte Stimulating Hormone (Daiichi Pure Chemicals Co., Ltd.), the cells were subjected to binding reaction at room temperature for 60 minutes. After the assay buffer was removed by inspiration, the cells were washed with ice-cooled PBS, and then stirred after adding 100 μl/well of MicroScint-20 (Packard Industry Company, Inc.) to each well. Subsequently, the cells were counted for radioactivity using a Top Count (Packard) to select CHO/MC4R strains, the cells to which [^125I]-[Nle4,D-Phe7]-α-Melanocyte Stimulating Hormone bound specifically. […]
The CHO/MC4R strains were inoculated in 96 well microplate at a concentration of 1×10^4 cells/well, and grown for 72 hours. […] Then, 100 μl MicroScint 20 (Packerd) was added to each well, and the radioactivity of each well was measured by Top Count (Packard). […]

T1 sequence (P32245 whole entry): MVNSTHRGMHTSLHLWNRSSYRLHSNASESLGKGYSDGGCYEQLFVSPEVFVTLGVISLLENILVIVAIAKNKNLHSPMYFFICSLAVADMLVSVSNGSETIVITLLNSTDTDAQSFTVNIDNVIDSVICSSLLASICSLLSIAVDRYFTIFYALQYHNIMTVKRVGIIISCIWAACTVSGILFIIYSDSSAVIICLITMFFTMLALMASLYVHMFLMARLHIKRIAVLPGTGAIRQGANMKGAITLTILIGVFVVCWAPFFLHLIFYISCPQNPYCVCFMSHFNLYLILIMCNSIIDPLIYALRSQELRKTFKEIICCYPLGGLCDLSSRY

SMILES	Binding Inhibitory Ratio [%]
CC(c1cccc(-c2ccccc2C(=O)NCCN)c1)N(C(=O)Cc1ccc(Cl)c(Cl)c1)C1CCN(Cc2ccccc2)CC1 (centres unmarked) [Example 9, N-(2-aminoethyl)-3′-[1-{N-(1-benzylpiperidin-4-yl)-N-(3,4-dichlorophenylacetyl)amino}ethyl][1,1′-biphenyl]-2-carboxamide dihydrochloride]	100
CC(c1cccc(-c2ccccc2C(=O)NCCN)c1)N(C(=O)Cc1ccc2ccccc2c1)C1CCN(Cc2ccccc2)CC1 (centres unmarked) [Example 1, N-(2-aminoethyl)-3′-[1-{N-(1-benzylpiperidin-4-yl)-N-(2-naphthylacetyl)amino}ethyl][1,1′-biphenyl)-2-carboxamide dihydrochloride]	96

The remaining lines, values ahead:

Binding Inhibitory Ratio [%]	SMILES
97	CC(c1cccc(-c2ccccc2C(=O)NCCN)c1)N(C(=O)Cc1ccc(Br)cc1)C1CCN(Cc2ccccc2)CC1 (centres unmarked) [Example 2, N-(2-aminoethyl) -3′-[1-{N-(1-benzylpiperidin-4-yl)-N-(4-bromophenylacetyl)amino}ethyl][1,1′-biphenyl]-2-carboxamide dihydrochloride]
92	CC(c1cccc(-c2ccccc2C(=O)NCCN)c1)N(C(=O)Cc1cccc(Cl)c1)C1CCN(Cc2ccccc2)CC1 (centres unmarked) [Example 4, N-(2-aminoethyl)-3′-[1-(N-(1-benzylpiperidin-4-yl)-N-(3-chlorophenylacetyl)amino}ethyl][1,1′-biphenyl]-2-carboxamide dihydrochloride]
97	CC(c1cccc(-c2ccccc2C(=O)NCCN)c1)N(C(=O)Cc1ccc(Cl)cc1)C1CCN(Cc2ccccc2)CC1 (centres unmarked) [Example 3, N-(2-aminoethyl)-3′-[1-{N-(1-benzylpiperidin-4-yl)-N-(4-chlorophenylacetyl)amino}ethyl][1,1′-biphenyl]-2-carboxamide dihydrochloride]
